Data from PubChem BioAssay AID1918930 (Molecular Pharmacology Branch, DTP, NCI, 2023).
Values joined by “and” are separate entries in the source; they are usually repeats but may differ in a detail not shown here. Equal entries are not always repeated.

System: 233499-124-R-J3-PDC complex spheroid viability, % test/control
Experiment: Anticancer human tumor 233499-124-R-J3-PDC patient-derived colon adenocarcinoma cell line growth inhibition
Details: for viability, T/C: stronger effect = lower value
In short: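 Multicellular complex spheroids of tumor cells with human endothelial cells (HUVEC) and mesenchymal stem cells; the LSD1 inhibitor iadademstat was combined with standard-of-care or investigational agents. Top concentration at or near clinical Cmax, half-log dilutions; final DMSO ≤0.25%.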
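Note: spheroids exposed to agents for one week before readout.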

## CC1COCCN1c1cc(-c2ccnn2C)c2ccnc(-c3ccn[nH]3)c2n1 (configuration not stated) + NC1CC1c1ccc(-c2cccc(O)c2)cc1
Curve of first compound, second compound 0.1 µM
  IC50: > 1000 nM
Curve of first compound, second compound 0.316 µM
  IC50: > 1000 nM
Curve of first compound, second compound 1 µM
  IC50: > 1000 nM
Curve of first compound, second compound 3.16 µM
  IC50: < 3.16 nM
Curve of first compound, second compound 10 µM
  IC50: < 3.16 nM
Second compound 0.1 µM, first compound 0.00316 µM
  viability, T/C: 60.7%
Second compound 0.1 µM, first compound 0.01 µM
  viability, T/C: 63.2%
Second compound 0.1 µM, first compound 0.0316 µM
  viability, T/C: 36.7%
Second compound 0.1 µM, first compound 0.1 µM
  viability, T/C: 39.4%
Second compound 0.1 µM, first compound 0.316 µM
  viability, T/C: 56.4%
Second compound 0.1 µM, first compound 1 µM
  viability, T/C: 102%
Second compound 0.316 µM, first compound 0.00316 µM
  viability, T/C: 62.7%
Second compound 0.316 µM, first compound 0.01 µM
  viability, T/C: 75.6%
Second compound 0.316 µM, first compound 0.0316 µM
  viability, T/C: 38.9%
Second compound 0.316 µM, first compound 0.1 µM
  viability, T/C: 36.6%
Second compound 0.316 µM, first compound 0.316 µM
  viability, T/C: 43.7%
Second compound 0.316 µM, first compound 1 µM
  viability, T/C: 87.3%
Second compound 1 µM, first compound 0.00316 µM
  viability, T/C: 64.1%
Second compound 1 µM, first compound 0.01 µM
  viability, T/C: 59.6%
Second compound 1 µM, first compound 0.0316 µM
  viability, T/C: 37.4%
Second compound 1 µM, first compound 0.1 µM
  viability, T/C: 40.1%
Second compound 1 µM, first compound 0.316 µM
  viability, T/C: 39.1%
Second compound 1 µM, first compound 1 µM
  viability, T/C: 81.8%
Second compound 3.16 µM, first compound 0.00316 µM
  viability, T/C: 60.5%
Second compound 3.16 µM, first compound 0.01 µM
  viability, T/C: 50.9%
Second compound 3.16 µM, first compound 0.0316 µM
  viability, T/C: 39.5%
Second compound 3.16 µM, first compound 0.1 µM
  viability, T/C: 42.7%
Second compound 3.16 µM, first compound 0.316 µM
  viability, T/C: 44.2%
Second compound 3.16 µM, first compound 1 µM
  viability, T/C: 82.1%
Second compound 10 µM, first compound 0.00316 µM
  viability, T/C: 53.4%
Second compound 10 µM, first compound 0.01 µM
  viability, T/C: 42.1%
Second compound 10 µM, first compound 0.0316 µM
  viability, T/C: 32.7%
Second compound 10 µM, first compound 0.1 µM
  viability, T/C: 36.2%
Second compound 10 µM, first compound 0.316 µM
  viability, T/C: 32.9%
Second compound 10 µM, first compound 1 µM
  viability, T/C: 76.5%

## CC(C)CC(NC(=O)CNC(=O)c1cc(Cl)ccc1Cl)B1OC(=O)CC(CC(=O)O)(C(=O)O)O1 (configuration not stated)
Compound 0.000316 µM
  viability, T/C: 90.6% and 106%
Compound 0.001 µM
  viability, T/C: 89.8% and 95.7%
Compound 0.00316 µM
  viability, T/C: 102% and 78.5%
Compound 0.01 µM
  viability, T/C: 9.9% and 4.05%
Compound 0.0316 µM
  viability, T/C: 7.32% and 0.21%
Compound 0.1 µM
  viability, T/C: 5.06% and 0.23%
Curve of compound
  IC50: 5.78 nM and 4.92 nM
